Format in all cases: cell-based
For one test, the target named is T1, human TLR9 (Homo sapiens, UniProt Q9NR96).
T1 construct: host or cells: HEK-Blue cells
T1 sequence (Q9NR96 26-1032): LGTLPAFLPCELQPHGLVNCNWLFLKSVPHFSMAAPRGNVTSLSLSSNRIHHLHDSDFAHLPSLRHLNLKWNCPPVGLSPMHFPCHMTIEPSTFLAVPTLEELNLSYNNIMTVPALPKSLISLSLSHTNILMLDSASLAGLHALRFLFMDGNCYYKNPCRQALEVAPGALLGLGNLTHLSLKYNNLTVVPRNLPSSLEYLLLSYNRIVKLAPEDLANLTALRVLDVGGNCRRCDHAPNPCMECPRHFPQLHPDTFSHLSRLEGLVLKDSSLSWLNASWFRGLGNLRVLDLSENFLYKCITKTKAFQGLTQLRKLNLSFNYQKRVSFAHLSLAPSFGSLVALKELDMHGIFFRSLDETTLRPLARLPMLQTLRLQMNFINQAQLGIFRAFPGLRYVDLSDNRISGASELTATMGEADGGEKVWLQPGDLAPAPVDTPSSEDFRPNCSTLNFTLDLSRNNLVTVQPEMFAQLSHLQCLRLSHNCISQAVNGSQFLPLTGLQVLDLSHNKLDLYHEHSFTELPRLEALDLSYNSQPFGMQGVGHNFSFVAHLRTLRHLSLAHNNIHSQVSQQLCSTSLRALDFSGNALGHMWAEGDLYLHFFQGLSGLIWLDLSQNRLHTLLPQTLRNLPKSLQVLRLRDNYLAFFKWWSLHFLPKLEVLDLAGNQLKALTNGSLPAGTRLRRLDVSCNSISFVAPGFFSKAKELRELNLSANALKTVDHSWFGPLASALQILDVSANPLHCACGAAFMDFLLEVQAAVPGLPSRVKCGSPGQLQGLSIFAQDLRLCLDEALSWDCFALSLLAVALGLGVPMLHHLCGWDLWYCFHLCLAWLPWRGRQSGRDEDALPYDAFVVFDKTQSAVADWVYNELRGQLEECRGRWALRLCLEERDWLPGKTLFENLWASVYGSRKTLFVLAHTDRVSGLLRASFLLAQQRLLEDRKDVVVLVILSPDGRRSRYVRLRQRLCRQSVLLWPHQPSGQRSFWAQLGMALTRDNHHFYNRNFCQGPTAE
Kind of test: TLR9 inhibition reporter assay (HEK-Blue cells, SEAP reporter, ODN2006 stimulation). To be noted: HEK-Blue cells overexpressing human TLR9, SEAP reporter, ODN2006 5 nM. As for the experimental part:
TLR7/8/9 Inhibition Reporter Assays
HEK-Blue™-cells (Invivogen) overexpressing human TLR7, TLR8 or TLR9 receptors were used for screening inhibitors of these receptors using an inducible SEAP (secreted embryonic alkaline phosphatase) reporter gene under the control of the IFN-β minimal promoter fused to five NF-κB and AP-1-binding sites. Briefly, cells are seeded into Greiner 384 well plates (15000 cells per well for TLR7, 20,000 for TLR8 and 25,000 for TLR9) and then treated with test compounds in DMSO to yield a final dose response concentration range of 0.05 nM-50 μM. After a 30 minute compound pre-treatment at room temperature, the cells are then stimulated with a TLR7 ligand (gardiquimod at a final concentration of 7.5 μM), TLR8 ligand (R848 at a final concentration of 15.9 μM) or TLR9 ligand (ODN2006 at a final concentration of 5 nM) to activate NF-κB and AP-1 which induce the production of SEAP. After a 22 hour incubation at 37° C., 5% CO2, SEAP levels are determined with the addition of HEK-Blue™ Detection reagent (Invivogen), a cell culture medium that allows for detection of SEAP, according to manufacturer's specifications. The percent inhibition is determined as the % reduction in the HEK-Blue signal present in wells treated with agonist plus DMSO alone compared to wells treated with a known inhibitor.
On the technique in general: A reporter such as luciferase makes a cellular process visible.

The next test deals with T2, human TLR8 (Homo sapiens, UniProt Q9NR97).
T2 construct: host or cells: HEK-Blue cells
T2 sequence (Q9NR97 27-1041): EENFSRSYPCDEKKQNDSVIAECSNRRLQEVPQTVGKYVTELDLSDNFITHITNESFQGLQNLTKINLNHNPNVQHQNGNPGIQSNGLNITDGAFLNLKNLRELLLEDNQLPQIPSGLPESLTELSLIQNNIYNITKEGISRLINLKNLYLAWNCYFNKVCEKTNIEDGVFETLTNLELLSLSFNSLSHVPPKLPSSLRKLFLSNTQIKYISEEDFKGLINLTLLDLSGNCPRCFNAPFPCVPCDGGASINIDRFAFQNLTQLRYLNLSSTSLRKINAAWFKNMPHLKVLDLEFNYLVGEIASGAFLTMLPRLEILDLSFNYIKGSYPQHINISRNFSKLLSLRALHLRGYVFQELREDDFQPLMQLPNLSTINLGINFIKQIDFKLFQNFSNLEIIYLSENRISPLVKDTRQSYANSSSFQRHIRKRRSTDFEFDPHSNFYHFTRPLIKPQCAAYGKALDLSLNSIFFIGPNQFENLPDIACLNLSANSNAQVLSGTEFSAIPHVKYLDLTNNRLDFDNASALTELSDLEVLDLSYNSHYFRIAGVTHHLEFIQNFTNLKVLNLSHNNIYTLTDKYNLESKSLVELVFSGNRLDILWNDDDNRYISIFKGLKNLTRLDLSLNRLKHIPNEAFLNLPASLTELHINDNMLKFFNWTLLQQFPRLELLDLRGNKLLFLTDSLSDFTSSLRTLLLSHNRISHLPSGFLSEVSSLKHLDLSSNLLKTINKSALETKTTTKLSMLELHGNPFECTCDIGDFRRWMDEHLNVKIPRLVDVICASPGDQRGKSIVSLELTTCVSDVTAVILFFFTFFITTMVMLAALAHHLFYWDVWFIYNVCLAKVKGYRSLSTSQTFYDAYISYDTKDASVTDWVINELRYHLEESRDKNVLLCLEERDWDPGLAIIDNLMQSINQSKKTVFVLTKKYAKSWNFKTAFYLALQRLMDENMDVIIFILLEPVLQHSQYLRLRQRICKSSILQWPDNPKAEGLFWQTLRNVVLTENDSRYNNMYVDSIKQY
Kind of test: TLR8 inhibition reporter assay (HEK-Blue cells, SEAP reporter, R848 stimulation). To be noted: HEK-Blue cells overexpressing human TLR8, SEAP reporter, R848 15.9 μM; read-out: TLR8 IC50. In a few lines:
(§1)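 Compound treatment: 30 min, RT, 0.05 nM–50 μM final. Agonist: TLR7 gardiquimod 7.5 μM; TLR8 R848 15.9 μM; TLR9 ODN2006 5 nM. Incubation 22 h, 37 °C, 5% CO2. Readout SEAP, HEK-Blue Detection.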

Another test addresses T3, human TLR7 (Homo sapiens, UniProt Q9NYK1).
T3 construct: host or cells: HEK-Blue cells
T3 sequence (Q9NYK1 27-1049): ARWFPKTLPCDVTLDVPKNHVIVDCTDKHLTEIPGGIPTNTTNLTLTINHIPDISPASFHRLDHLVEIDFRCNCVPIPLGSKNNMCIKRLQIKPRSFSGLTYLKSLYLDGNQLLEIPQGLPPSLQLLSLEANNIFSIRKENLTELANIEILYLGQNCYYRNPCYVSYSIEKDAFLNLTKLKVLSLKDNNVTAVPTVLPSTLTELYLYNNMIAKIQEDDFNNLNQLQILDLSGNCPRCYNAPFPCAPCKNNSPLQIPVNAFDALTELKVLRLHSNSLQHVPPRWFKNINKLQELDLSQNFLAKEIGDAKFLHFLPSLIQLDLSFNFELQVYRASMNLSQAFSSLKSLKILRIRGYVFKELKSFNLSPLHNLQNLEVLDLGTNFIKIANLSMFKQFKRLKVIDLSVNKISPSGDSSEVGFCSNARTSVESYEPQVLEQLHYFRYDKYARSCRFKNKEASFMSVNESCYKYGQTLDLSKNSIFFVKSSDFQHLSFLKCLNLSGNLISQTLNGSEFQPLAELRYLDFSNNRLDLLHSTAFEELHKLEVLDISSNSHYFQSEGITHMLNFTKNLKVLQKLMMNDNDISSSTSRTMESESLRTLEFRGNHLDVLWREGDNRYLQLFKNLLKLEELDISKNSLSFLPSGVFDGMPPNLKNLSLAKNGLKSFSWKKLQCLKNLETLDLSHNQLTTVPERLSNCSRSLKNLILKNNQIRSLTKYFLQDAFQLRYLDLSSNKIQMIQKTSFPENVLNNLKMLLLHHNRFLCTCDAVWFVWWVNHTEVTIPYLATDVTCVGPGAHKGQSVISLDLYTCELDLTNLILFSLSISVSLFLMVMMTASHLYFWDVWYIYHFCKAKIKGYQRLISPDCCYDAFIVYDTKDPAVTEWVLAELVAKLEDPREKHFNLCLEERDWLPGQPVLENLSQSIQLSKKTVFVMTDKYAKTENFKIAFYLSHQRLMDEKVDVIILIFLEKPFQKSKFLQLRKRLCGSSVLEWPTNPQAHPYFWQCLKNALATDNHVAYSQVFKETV
Kind of test: TLR7 inhibition reporter assay (HEK-Blue cells, SEAP reporter, gardiquimod stimulation). The following applies: HEK-Blue cells overexpressing human TLR7, SEAP reporter, gardiquimod 7.5 μM; read-out: TLR7 IC50. The gist of the method:
as §1

For orientation: IC50 means the concentration that gives 50% inhibition. As to `COc1cc(-c2[nH]c3sc(C4CCC(NC5CCN(C(C)C)CC5)CC4)nc3c2C(C)C)cn2ncnc12` (single isomer, unassigned) [Example 167, 1-isopropyl-N-(4-(6-isopropyl-5-(8-methoxy-[1,2,4]triazolo[1,5-a]pyridin-6-yl)-4H-pyrrolo[3,2-d]thiazol-2-yl)cyclohexyl)piperidin-4-amine], the IC50 stood at 1710 nM on human TLR9, 34.8 nM at human TLR8 and 7.37 nM at human TLR7.
The corresponding values for `COc1cc(-c2[nH]c3sc(C(=O)NCCN4CCCC4)nc3c2C(C)C)cn2ncnc12` [Example 387, 6-isopropyl-5-(8-methoxy-[1,2,4]triazolo[1,5-a]pyridin-6-yl)-N-(2-(pyrrolidin-1-yl)ethyl)-4H-pyrrolo[3,2-d]thiazole-2-carboxamide] are 11500 nM, 43.9 nM and 25.2 nM.
On to `Cc1c(-c2[nH]c3sc(C4CCC(N5CC(O)(C(F)(F)F)C5)CC4)nc3c2C(C)C)cn2ncnc2c1C` (single isomer, unassigned) [Example 236, 1-(4-(5-(7,8-dimethyl-[1,2,4]triazolo[1,5-a]pyridin-6-yl)-6-isopropyl-4H-pyrrolo[3,2-d]thiazol-2-yl)cyclohexyl)-3-(trifluoromethyl)azetidin-3-ol], for which the IC50 against human TLR9 worked out at 25400 nM; on human TLR8, 18.7 nM; at human TLR7, 1.36 nM.
The corresponding values for `COc1cc(-c2[nH]c3sc(C4CCN(CC(=O)N(C)C)CC4)nc3c2C(C)C)cn2ncnc12` [Example 7, 2-(4-(6-isopropyl-5-(8-methoxy-[1,2,4]triazolo[1,5-a]pyridin-6-yl)-4H-pyrrolo[3,2-d]thiazol-2-yl)piperidin-1-yl)-N,N-dimethylacetamide] are 5470 nM, 6.59 nM and 7.8 nM.
For `COCCN1CCN(c2nc3c(C(C)C)c(-c4cc(C)c5ncnn5c4)[nH]c3s2)[C@H](C)C1` [Example 357, (R)-6-isopropyl-2-(4-(2-methoxyethyl)-2-methylpiperazin-1-yl)-5-(8-methyl-[1,2,4]triazolo[1,5-a]pyridin-6-yl)-4H-pyrrolo[3,2-d]thiazole], the IC50 against human TLR9 came to 38100 nM; on human TLR7 it was 1280 nM.
For the compound `COc1cc(-c2c(C(C)C)c3nc(C4CCN(CC(F)(F)F)CC4)sc3n2CC(F)(F)F)cn2ncnc12` [Example 9, 6-isopropyl-5-(8-methoxy-[1,2,4]triazolo[1,5-a]pyridin-6-yl)-4-(2,2,2-trifluoroethyl)-2-(1-(2,2,2-trifluoroethyl)piperidin-4-yl)-4H-pyrrolo[3,2-d]thiazole], the midpoint of inhibition on human TLR9, the IC50, lay at 4160 nM.
As to `Cc1cc(-c2[nH]c3sc(N4CCN(CC(C)C)C[C@H]4C)nc3c2C(C)C)cn2ncnc12` [Example 361, (R)-2-(4-isobutyl-2-methylpiperazin-1-yl)-6-isopropyl-5-(8-methyl-[1,2,4]triazolo[1,5-a]pyridin-6-yl)-4H-pyrrolo[3,2-d]thiazole], the IC50 worked out at 45600 nM against human TLR9 and 719 nM on human TLR7.
For the compound `Cc1cc(-c2[nH]c3sc(N4CCNC[C@H]4C)nc3c2C(C)C)cn2ncnc12` [Example 311, (R)-6-isopropyl-5-(8-methyl-[1,2,4]triazolo[1,5-a]pyridin-6-yl)-2-(2-methylpiperazin-1-yl)-4H-pyrrolo[3,2-d]thiazole], the results for the IC50 on human TLR9 and on human TLR7 were 18800 nM and 1400 nM, respectively.
On to `Cc1cc(-c2[nH]c3sc(N4CCN(C5CCC5)C[C@H]4C)nc3c2C(C)C)cn2ncnc12` [Example 362, (R)-2-(4-cyclobutyl-2-methylpiperazin-1-yl)-6-isopropyl-5-(8-methyl-[1,2,4]triazolo[1,5-a]pyridin-6-yl)-4H-pyrrolo[3,2-d]thiazole], for which inhibition against human TLR9 was half-maximal at 25100 nM (IC50).
